Test results taken from ChEMBL document CHEMBL5620433, “Design and synthesis of new 1,2,3-triazoles derived from eugenol and analogues with in vitro and in vivo activity against Trypanosoma cruzi” (Eur J Med Chem, 2023).
Calls of active or inactive are those of the source. The calls are words filed in the database; no cut-off is given here.

Tests used:
[1] = biological target: Cruzipain (Trypanosoma cruzi) (UniProt P25779); test: Inhibition of recombinant Trypanosoma cruzi Cruzain using Z-FR-AMC as substrate at 100 uM measured for 5 mins by fluorescence based analysis
[2] = biological target: Cruzipain (Trypanosoma cruzi) (UniProt P25779); test: Inhibition of recombinant Trypanosoma cruzi Cruzain using Z-FR-AMC as substrate at 100 uM preincubated with enzyme for 10 mins and measured for 5 mins by fluorescence based analysis; conditions: time 15.0 min
Trypanosoma cruzi [3] = test: Antitrypanosomal activity against epimastigote form of Trypanosoma cruzi Y assessed as inhibition of parasite proliferation incubated for 72 hrs by resazurin dye based analysis; type: functional, organism-based
[4] = Selectivity index, ratio of CC50 for cytotoxicity against rat H9c2 cells to IC50 for antitrypanosomal activity against epimastigote form of Trypanosoma cruzi Y; type: toxicity, cell-based; conditions: read-out: Ratio IC50
H9c2 = test: (§1) Cytotoxicity against rat H9c2 cells assessed as reduction in cell viability measured after 72 hrs by resazurin due based analysis; type: toxicity; conditions: h9c2
[5] = as §1; type: toxicity; conditions: rat, H9c2 cells
[6] = Hepatotoxicity in Swiss mouse infected with trypomastigote form of Trypanosoma cruzi Y assessed as plasma aspartate aminotransferase level at 50 to 100 mg/kg, po administered via gavage for 7 days from day 5 post-infection by spectrophotometry; type: toxicity, organism-based; conditions: in vivo, 168 h, dose 50-100 mg/kg, time 7 day
Trypanosoma cruzi [7] = test: Antitrypanosomal activity against trypomastigote form of Trypanosoma cruzi Y assessed as inhibition of parasite viability incubated for 24 hrs by light microscopy; type: functional, organism-based
[8] = Toxicity in po dosed Swiss mouse infected with trypomastigote form of Trypanosoma cruzi Y assessed as apathy administered via gavage for 7 days from day 5 post-infection and measured on day 13 post-infection; type: organism-based; conditions: in vivo, 192 h, time 8 day
Trypanosoma cruzi [9] = test: Anti-trypanosomal activity against trypomastigote form of Trypanosoma cruzi Y infected in Swiss mouse assessed as reduction in parasitemia at 10 to 100 mg/kg, po administered via gavage for 7 days from day 5 post-infection; type: functional, organism-based; conditions: dose 10-100 mg/kg, time 7.0 day
[10] = Hepatotoxicity in Swiss mouse infected with trypomastigote form of Trypanosoma cruzi Y assessed as plasma alanine aminotransferase level at 50 to 100 mg/kg, po administered via gavage for 7 days from day 5 post-infection by spectrophotometry; type: toxicity, organism-based; conditions: in vivo, 168 h, dose 50-100 mg/kg, time 7 day
[11] = Toxicity in po dosed Swiss mouse infected with trypomastigote form of Trypanosoma cruzi Y assessed as diarrhea administered via gavage for 7 days from day 5 post-infection and measured on day 13 post-infection; type: organism-based; conditions: in vivo, 192 h, time 8 day
[12] = Toxicity in po dosed Swiss mouse infected with trypomastigote form of Trypanosoma cruzi Y assessed as mortality administered via gavage for 7 days from day 5 post-infection and measured on day 13 post-infection; type: organism-based; conditions: in vivo, 192 h, time 8 day
[13] = Toxicity in po dosed Swiss mouse infected with trypomastigote form of Trypanosoma cruzi Y assessed as bristly fur administered via gavage for 7 days from day 5 post-infection and measured on day 13 post-infection; type: organism-based; conditions: in vivo, 192 h, time 8 day
[14] = Toxicity in Swiss mouse infected with trypomastigote form of Trypanosoma cruzi Y assessed as increase in weight gain at 10 to 100 mg/kg, po administered via gavage for 7 days from day 5 post-infection; type: organism-based; conditions: in vivo, 168 h, dose 10-100 mg/kg, time 7 day
Trypanosoma cruzi [15] = test: Anti-trypanosomal activity against trypomastigote form of Trypanosoma cruzi Y infected in mouse assessed as reduction in parasitemia at 100 mg/kg, po for 7 days; type: functional; conditions: 168 h, time 7 day
Trypanosoma cruzi [16] = test: Anti-trypanosomal activity against epimastigote form of Trypanosoma cruzi by resazurin microtiter assay; type: functional, organism-based
Mus musculus [17] = test: Reduction in plasma IgG2 level in Swiss mouse infected with trypomastigote form of Trypanosoma cruzi Y at 10 to 50 mg/kg, po administered via gavage for 7 days from day 5 post-infection by ELISA; type: functional, organism-based; conditions: dose 10-50 mg/kg, time 7.0 day
Mus musculus [18] = test: Reduction in plasma total IgG level in Swiss mouse infected with trypomastigote form of Trypanosoma cruzi Y at 100 mg/kg, po administered via gavage for 7 days from day 5 post-infection by ELISA; type: functional, organism-based; conditions: time 7.0 day
Mus musculus [19] = test: Reduction in plasma IgG1 level in Swiss mouse infected with trypomastigote form of Trypanosoma cruzi Y at 10 to 50 mg/kg, po administered via gavage for 7 days from day 5 post-infection by ELISA; type: functional, organism-based; conditions: dose 10-50 mg/kg, time 7.0 day
[20] = Toxicity in po dosed Swiss mouse infected with trypomastigote form of Trypanosoma cruzi Y assessed as fur alteration administered via gavage for 7 days from day 5 post-infection and measured on day 13 post-infection; type: organism-based; conditions: in vivo, 192 h, time 8 day
Mus musculus [21] = test: Reduction in cardiac inflammation in Swiss mouse infected with trypomastigote form of Trypanosoma cruzi Y assessed as reduction in inflammatory nuclei at 10 to 100 mg/kg, po administered via gavage for 7 days from day 5 post-infection by Hematoxylin-Eosin staining based microscopy; type: functional, organism-based; conditions: dose 10-100 mg/kg, time 7.0 day
Mus musculus [22] = test: Reduction in plasma IgG1 level in Swiss mouse infected with trypomastigote form of Trypanosoma cruzi Y at 100 mg/kg, po administered via gavage for 7 days from day 5 post-infection by ELISA; type: functional, organism-based; conditions: time 7.0 day
[23] = Genotoxicity in rat H9c2 cells assessed as induction of DNA damage at 10 uM incubated for 72 hrs by gel electrophoresis analysis; type: toxicity, cell-based; conditions: h9c2, 72 h
Mus musculus [24] = test: Reduction in plasma total IgG level in Swiss mouse infected with trypomastigote form of Trypanosoma cruzi Y at 10 to 50 mg/kg, po administered via gavage for 7 days from day 5 post-infection by ELISA; type: functional, organism-based; conditions: dose 10-50 mg/kg, time 7.0 day
Trypanosoma cruzi [25] = test: Anti-trypanosomal activity against trypomastigote form of Trypanosoma cruzi Y infected in Swiss mouse assessed as reduction in parasitemia at 50 mg/kg, po administered via gavage for 7 days from day 5 post-infection; type: functional, organism-based; conditions: time 7.0 day
Trypanosoma cruzi [26] = test: Anti-trypanosomal activity against trypomastigote form of Trypanosoma cruzi Y infected in Swiss mouse assessed as reduction in parasitemia at 100 mg/kg, po administered via gavage for 7 days from day 5 post-infection; type: functional; conditions: 168 h, time 7 day
[27] = Toxicity in Swiss mouse infected with trypomastigote form of Trypanosoma cruzi Y assessed as collateral effects at 10 to 100 mg/kg, po administered via gavage for 7 days from day 5 post-infection; type: organism-based; conditions: in vivo, 168 h, dose 10-100 mg/kg, time 7 day
Mus musculus [28] = test: Reduction in plasma IgG2 level in Swiss mouse infected with trypomastigote form of Trypanosoma cruzi Y at 100 mg/kg, po administered via gavage for 7 days from day 5 post-infection by ELISA; type: functional, organism-based; conditions: time 7.0 day
Trypanosoma cruzi [29] = test: Anti-trypanosomal activity against trypomastigote form of Trypanosoma cruzi Y infected in Swiss mouse assessed as reduction in parasitemia at 100 mg/kg, po administered via gavage for 2 days from day 5 post-infection; type: functional; conditions: 48 h, time 2 day

Chain of Cruzipain (Trypanosoma cruzi) (P25779 123-467 limits assumed): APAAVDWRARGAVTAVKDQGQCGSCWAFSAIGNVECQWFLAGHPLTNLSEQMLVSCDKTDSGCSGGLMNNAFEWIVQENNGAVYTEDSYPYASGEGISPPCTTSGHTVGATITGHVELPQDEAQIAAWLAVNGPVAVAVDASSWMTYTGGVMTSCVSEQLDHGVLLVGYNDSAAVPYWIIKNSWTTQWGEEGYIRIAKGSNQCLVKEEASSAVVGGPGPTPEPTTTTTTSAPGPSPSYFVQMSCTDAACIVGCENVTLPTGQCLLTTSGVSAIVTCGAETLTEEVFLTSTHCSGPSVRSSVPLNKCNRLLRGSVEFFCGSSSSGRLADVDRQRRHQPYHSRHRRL

inhibition [1] [%]	inhibition [2] [%]	IC50 (Trypanosoma cruzi [3]) [µM]	Compound	selectivity ratio [4]	IC50 at 72 h [5] [µM]	further results
7.2	7.2	558	CCCc1ccc(OCC(=O)Cn2cc(-c3ccccc3)nn2)c(OC)c1	1.9		IC50 (H9c2): 1070 µM
7.2	7.2	826	C=CCc1ccc(OCC(O)Cn2cc(COc3ccc(C(C)C)cc3)nn2)c(OC)c1 (racemic)	0.5	480	
7.2	7.2	34.4	CCCc1ccc(OCC(O)Cn2cc(COc3ccc(OC)cc3)nn2)c(OC)c1 (racemic)	9.1	315	
7.2	7.2	64.3	COc1ccccc1OCC(O)Cn1cc(COc2ccc(C(C)C)cc2)nn1 (racemic)			
7.2	7.2	41.1	CCCc1ccc(OCC(O)Cn2cc(COc3ccc(C(C)C)cc3)nn2)c(OC)c1 (racemic)	7.3	302	
7.2	7.2	121	COc1ccccc1OCC(O)Cn1cc(COc2ccc(Cl)cc2)nn1 (racemic)	3.1	380	
7.2	7.2	198	CCCc1ccc(OCC(Cn2cc(-c3ccccc3)nn2)OC)c(OC)c1 (racemic)	2.8	555	
7.2	7.2	256	C=CCc1ccc(OCC(O)Cn2cc(COc3ccccc3)nn2)c(OC)c1 (racemic)	1.6	410	
7.2	7.2	126	COc1ccccc1OCC(O)Cn1cc(-c2ccccc2)nn1 (racemic)	3.3	422	
17	17	53.7	CCCc1ccc(OCC(O)Cn2cc(-c3ccccc3)nn2)c(OC)c1 (racemic)	0.3	16.8	inhibition in vivo at 100 mg/kg (Trypanosoma cruzi [15]): 50%; IC50 (Trypanosoma cruzi [16]): 42.8 µM
7.2	7.2	60.8	COc1ccccc1OCC(O)Cn1cc(COc2ccc([N+](=O)[O-])cc2)nn1 (racemic)	2.1	134	
7.2	7.2	37	C=CCc1ccc(OCC(O)Cn2cc(COc3ccc(Cl)cc3)nn2)c(OC)c1 (racemic)	1.5	58.1	
7.2	7.2	113	COc1ccc(OCc2cn(CC(O)COc3ccccc3OC)nn2)cc1 (racemic)	4.1	469	
7.2	7.2	190	C=CCc1ccc(OCC(O)Cn2cc(COc3ccc(OC)cc3)nn2)c(OC)c1 (racemic)	8.9		IC50 (H9c2): 1690 µM
7.2	7.2	335	CCCc1ccc(OCC(Cn2cc(-c3ccccc3)nn2)OCc2ccccc2)c(OC)c1 (racemic)	> 1.1	> 400	
7.2	7.2	212	CCCc1ccc(OCC(O)Cn2ccnn2)c(OC)c1 (racemic)	3.5	743	
7.2	7.2	75.8	CCCc1ccc(OCC(O)Cn2cc(COc3ccccc3)nn2)c(OC)c1 (racemic)	2.7	211	
7.2	7.2	149	C=CCc1ccc(OCC(O)Cn2cc(COc3ccc([N+](=O)[O-])cc3)nn2)c(OC)c1 (racemic)	2.1	323	
7.2	7.2	112	COc1ccccc1OCC(O)Cn1cc(COc2ccccc2)nn1 (racemic)	3.8	437	

Compound	inhibition [1] [%]	inhibition [2] [%]	IC50 (Trypanosoma cruzi [3]) [µM]	selectivity ratio [4]	IC50 at 72 h [5] [µM]	further results
CCCc1ccc(OCC(O)Cn2cc(COc3ccc(Cl)cc3)nn2)c(OC)c1 (racemic)	29.3	29.3	19.7	6.6	132	Activity [6]: Non-Toxic; IC50 (Trypanosoma cruzi [7]): 20.7 µM; Activity [8]: Non-Toxic; Activity (Trypanosoma cruzi [9]): inactive; Activity [10]: Non-Toxic; Activity [11]: Non-Toxic; Activity [12]: Non-Toxic; Activity [13]: Toxic; Activity [14]: Non-Toxic
CCCc1ccc(OCC(O)Cn2cc(COc3ccc([N+](=O)[O-])cc3)nn2)c(OC)c1 (racemic)	24	24	7.3	77.6	568	Activity [6]: Non-Toxic; IC50 (Trypanosoma cruzi [7]): 8.41 µM; inhibition (Mus musculus [17]): inactive; inhibition (Mus musculus [18]): Active; inhibition (Mus musculus [19]): inactive; Activity [8]: Non-Toxic; Activity [20]: Non-Toxic; inhibition (Mus musculus [21]): Active; inhibition (Mus musculus [22]): Active; Activity [23]: Non-Toxic; inhibition (Mus musculus [24]): inactive; Activity [10]: Non-Toxic; Activity (Trypanosoma cruzi [25]): Active; Activity [11]: Non-Toxic; Activity [12]: Non-Toxic; Activity [14]: Toxic; inhibition in vivo at 100 mg/kg (Trypanosoma cruzi [26]): 99.4%; Activity [27]: Non-Toxic; inhibition (Mus musculus [28]): Active
O=C(Cn1ccnc1[N+](=O)[O-])NCc1ccccc1 [BENZNIDAZOLE]			21.5	78.4		inhibition in vivo at 100 mg/kg (Trypanosoma cruzi [29]): 100%; IC50 (Trypanosoma cruzi [7]): 12.7 µM; inhibition (Mus musculus [18]): Active; inhibition (Mus musculus [22]): Active; IC50 (H9c2): 1690 µM; inhibition (Mus musculus [28]): Active
